ChEMBL document CHEMBL4251634, “Synthesis and antimicrobial activity of pyrimidinyl 1,3,4-oxadiazoles, 1,3,4-thiadiazoles and 1,2,4-triazoles” (2018)
Active and inactive are the calls of the source. The calls are words filed in the database; no cut-off is given here.

Assays:
Type in all cases: functional
Staphylococcus aureus [1] = experiment: Antibacterial activity against Staphylococcus aureus assessed as diameter of inhibition zone at 12.5 ug/well after 24 hrs by agar well diffusion method; details: for zone of inhibition at 12.5 µg/disc: read-out: DIZ
Staphylococcus aureus [2] = experiment: Antibacterial activity against Staphylococcus aureus assessed as diameter of inhibition zone at 25 ug/well after 24 hrs by agar well diffusion method; details: for zone of inhibition at 25 µg/disc: read-out: DIZ
Staphylococcus aureus [3] = experiment: Antibacterial activity against Staphylococcus aureus assessed as diameter of inhibition zone at 50 ug/well after 24 hrs by agar well diffusion method; details: for zone of inhibition at 50 µg/disc: read-out: DIZ
Staphylococcus aureus [4] = experiment: Antibacterial activity against Staphylococcus aureus assessed as diameter of inhibition zone at 100 ug/well after 24 hrs by agar well diffusion method; details: for zone of inhibition at 100 µg/disc: read-out: DIZ
Bacillus subtilis [5] = experiment: Antibacterial activity against Bacillus subtilis assessed as diameter of inhibition zone at 12.5 ug/well after 24 hrs by agar well diffusion method; details: for zone of inhibition at 12.5 µg/disc: read-out: DIZ
Bacillus subtilis [6] = experiment: Antibacterial activity against Bacillus subtilis assessed as diameter of inhibition zone at 25 ug/well after 24 hrs by agar well diffusion method; details: for zone of inhibition at 25 µg/disc: read-out: DIZ
Bacillus subtilis [7] = experiment: Antibacterial activity against Bacillus subtilis assessed as diameter of inhibition zone at 50 ug/well after 24 hrs by agar well diffusion method; details: for zone of inhibition at 50 µg/disc: read-out: DIZ
Bacillus subtilis [8] = experiment: Antibacterial activity against Bacillus subtilis assessed as diameter of inhibition zone at 100 ug/well after 24 hrs by agar well diffusion method; details: for zone of inhibition at 100 µg/disc: read-out: DIZ
Pseudomonas aeruginosa [9] = experiment: Antibacterial activity against Pseudomonas aeruginosa assessed as diameter of inhibition zone at 12.5 ug/well after 24 hrs by agar well diffusion method; details: for zone of inhibition at 12.5 µg/disc: read-out: DIZ
Pseudomonas aeruginosa [10] = experiment: Antibacterial activity against Pseudomonas aeruginosa assessed as diameter of inhibition zone at 25 ug/well after 24 hrs by agar well diffusion method; details: for zone of inhibition at 25 µg/disc: read-out: DIZ
Pseudomonas aeruginosa [11] = experiment: Antibacterial activity against Pseudomonas aeruginosa assessed as diameter of inhibition zone at 50 ug/well after 24 hrs by agar well diffusion method; details: for zone of inhibition at 50 µg/disc: read-out: DIZ
Pseudomonas aeruginosa [12] = experiment: Antibacterial activity against Pseudomonas aeruginosa assessed as diameter of inhibition zone at 100 ug/well after 24 hrs by agar well diffusion method; details: for zone of inhibition at 100 µg/disc: read-out: DIZ
Klebsiella pneumoniae [13] = experiment: Antibacterial activity against Klebsiella pneumoniae assessed as diameter of inhibition zone at 12.5 ug/well after 24 hrs by agar well diffusion method; details: for zone of inhibition at 12.5 µg/disc: read-out: DIZ
Klebsiella pneumoniae [14] = experiment: Antibacterial activity against Klebsiella pneumoniae assessed as diameter of inhibition zone at 25 ug/well after 24 hrs by agar well diffusion method; details: for zone of inhibition at 25 µg/disc: read-out: DIZ
Klebsiella pneumoniae [15] = experiment: Antibacterial activity against Klebsiella pneumoniae assessed as diameter of inhibition zone at 50 ug/well after 24 hrs by agar well diffusion method; details: for zone of inhibition at 50 µg/disc: read-out: DIZ
Klebsiella pneumoniae [16] = experiment: Antibacterial activity against Klebsiella pneumoniae assessed as diameter of inhibition zone at 100 ug/well after 24 hrs by agar well diffusion method; details: for zone of inhibition at 100 µg/disc: read-out: DIZ
Aspergillus niger [17] = experiment: Antifungal activity against Aspergillus niger assessed as diameter of inhibition zone at 12.5 ug/well after 48 hrs by agar well diffusion method; details: for zone of inhibition at 12.5 µg/disc: read-out: DIZ
Aspergillus niger [18] = experiment: Antifungal activity against Aspergillus niger assessed as diameter of inhibition zone at 25 ug/well after 48 hrs by agar well diffusion method; details: for zone of inhibition at 25 µg/disc: read-out: DIZ
Aspergillus niger [19] = experiment: Antifungal activity against Aspergillus niger assessed as diameter of inhibition zone at 50 ug/well after 48 hrs by agar well diffusion method; details: for zone of inhibition at 50 µg/disc: read-out: DIZ
Aspergillus niger [20] = experiment: Antifungal activity against Aspergillus niger assessed as diameter of inhibition zone at 100 ug/well after 48 hrs by agar well diffusion method; details: for zone of inhibition at 100 µg/disc: read-out: DIZ
Penicillium chrysogenum [21] = experiment: Antifungal activity against Penicillium chrysogenum assessed as diameter of inhibition zone at 12.5 ug/well after 48 hrs by agar well diffusion method; details: for zone of inhibition at 12.5 µg/disc: read-out: DIZ
Penicillium chrysogenum [22] = experiment: Antifungal activity against Penicillium chrysogenum assessed as diameter of inhibition zone at 25 ug/well after 48 hrs by agar well diffusion method; details: for zone of inhibition at 25 µg/disc: read-out: DIZ
Penicillium chrysogenum [23] = experiment: Antifungal activity against Penicillium chrysogenum assessed as diameter of inhibition zone at 50 ug/well after 48 hrs by agar well diffusion method; details: for zone of inhibition at 50 µg/disc: read-out: DIZ
Penicillium chrysogenum [24] = experiment: Antifungal activity against Penicillium chrysogenum assessed as diameter of inhibition zone at 100 ug/well after 48 hrs by agar well diffusion method; details: for zone of inhibition at 100 µg/disc: read-out: DIZ

Cc1cc(SCc2nnc(-c3ccccc3)n2N)nc(SCc2nnc(-c3ccccc3)n2N)n1
zone of inhibition at 12.5 µg/disc (Staphylococcus aureus [1]): 8 mm | zone of inhibition at 25 µg/disc (Staphylococcus aureus [2]): 9 mm | zone of inhibition at 50 µg/disc (Staphylococcus aureus [3]): 10 mm | zone of inhibition at 100 µg/disc (Staphylococcus aureus [4]): 12 mm | zone of inhibition at 12.5 µg/disc (Bacillus subtilis [5]): 10 mm | zone of inhibition at 25 µg/disc (Bacillus subtilis [6]): 12 mm | zone of inhibition at 50 µg/disc (Bacillus subtilis [7]): 14 mm | zone of inhibition at 100 µg/disc (Bacillus subtilis [8]): 17 mm | zone of inhibition at 12.5 µg/disc (Pseudomonas aeruginosa [9]): 14 mm | zone of inhibition at 25 µg/disc (Pseudomonas aeruginosa [10]): 16 mm | zone of inhibition at 50 µg/disc (Pseudomonas aeruginosa [11]): 19 mm | zone of inhibition at 100 µg/disc (Pseudomonas aeruginosa [12]): 23 mm | zone of inhibition at 12.5 µg/disc (Klebsiella pneumoniae [13]): 17 mm | zone of inhibition at 25 µg/disc (Klebsiella pneumoniae [14]): 19 mm | zone of inhibition at 50 µg/disc (Klebsiella pneumoniae [15]): 22 mm | zone of inhibition at 100 µg/disc (Klebsiella pneumoniae [16]): 24 mm | zone of inhibition at 12.5 µg/disc (Aspergillus niger [17]): 17 mm | zone of inhibition at 25 µg/disc (Aspergillus niger [18]): 19 mm | zone of inhibition at 50 µg/disc (Aspergillus niger [19]): 21 mm | zone of inhibition at 100 µg/disc (Aspergillus niger [20]): 24 mm | zone of inhibition at 12.5 µg/disc (Penicillium chrysogenum [21]): 11 mm | zone of inhibition at 25 µg/disc (Penicillium chrysogenum [22]): 12 mm | zone of inhibition at 50 µg/disc (Penicillium chrysogenum [23]): 14 mm | zone of inhibition at 100 µg/disc (Penicillium chrysogenum [24]): 16 mm

Cc1cc(SCc2nnc(-c3ccc(Br)cc3)n2N)nc(SCc2nnc(-c3ccc(Br)cc3)n2N)n1
zone of inhibition at 12.5 µg/disc (Staphylococcus aureus [1]): 9 mm | zone of inhibition at 25 µg/disc (Staphylococcus aureus [2]): 10 mm | zone of inhibition at 50 µg/disc (Staphylococcus aureus [3]): 12 mm | zone of inhibition at 100 µg/disc (Staphylococcus aureus [4]): 14 mm | zone of inhibition at 12.5 µg/disc (Bacillus subtilis [5]): 15 mm | zone of inhibition at 25 µg/disc (Bacillus subtilis [6]): 16 mm | zone of inhibition at 50 µg/disc (Bacillus subtilis [7]): 18 mm | zone of inhibition at 100 µg/disc (Bacillus subtilis [8]): 20 mm | zone of inhibition at 12.5 µg/disc (Pseudomonas aeruginosa [9]): 16 mm | zone of inhibition at 25 µg/disc (Pseudomonas aeruginosa [10]): 20 mm | zone of inhibition at 50 µg/disc (Pseudomonas aeruginosa [11]): 22 mm | zone of inhibition at 100 µg/disc (Pseudomonas aeruginosa [12]): 25 mm | zone of inhibition at 12.5 µg/disc (Klebsiella pneumoniae [13]): 21 mm | zone of inhibition at 25 µg/disc (Klebsiella pneumoniae [14]): 23 mm | zone of inhibition at 50 µg/disc (Klebsiella pneumoniae [15]): 25 mm | zone of inhibition at 100 µg/disc (Klebsiella pneumoniae [16]): 28 mm | zone of inhibition at 12.5 µg/disc (Aspergillus niger [17]): 27 mm | zone of inhibition at 25 µg/disc (Aspergillus niger [18]): 29 mm | zone of inhibition at 50 µg/disc (Aspergillus niger [19]): 31 mm | zone of inhibition at 100 µg/disc (Aspergillus niger [20]): 34 mm | zone of inhibition at 12.5 µg/disc (Penicillium chrysogenum [21]): 17 mm | zone of inhibition at 25 µg/disc (Penicillium chrysogenum [22]): 19 mm | zone of inhibition at 50 µg/disc (Penicillium chrysogenum [23]): 21 mm | zone of inhibition at 100 µg/disc (Penicillium chrysogenum [24]): 24 mm

Cc1ccc(-c2nnc(CSc3cc(C)nc(SCc4nnc(-c5ccc(C)cc5)n4N)n3)n2N)cc1
diameter of the inhibition zone (DIZ) (Staphylococcus aureus [1]): inactive | diameter of the inhibition zone (DIZ) (Staphylococcus aureus [2]): inactive | diameter of the inhibition zone (DIZ) (Staphylococcus aureus [3]): inactive | diameter of the inhibition zone (DIZ) (Staphylococcus aureus [4]): inactive | diameter of the inhibition zone (DIZ) (Bacillus subtilis [5]): inactive | zone of inhibition at 25 µg/disc (Bacillus subtilis [6]): 7 mm | zone of inhibition at 50 µg/disc (Bacillus subtilis [7]): 9 mm | zone of inhibition at 100 µg/disc (Bacillus subtilis [8]): 11 mm | zone of inhibition at 12.5 µg/disc (Pseudomonas aeruginosa [9]): 9 mm | zone of inhibition at 25 µg/disc (Pseudomonas aeruginosa [10]): 11 mm | zone of inhibition at 50 µg/disc (Pseudomonas aeruginosa [11]): 14 mm | zone of inhibition at 100 µg/disc (Pseudomonas aeruginosa [12]): 18 mm | zone of inhibition at 12.5 µg/disc (Klebsiella pneumoniae [13]): 12 mm | zone of inhibition at 25 µg/disc (Klebsiella pneumoniae [14]): 13 mm | zone of inhibition at 50 µg/disc (Klebsiella pneumoniae [15]): 15 mm | zone of inhibition at 100 µg/disc (Klebsiella pneumoniae [16]): 18 mm | zone of inhibition at 12.5 µg/disc (Aspergillus niger [17]): 10 mm | zone of inhibition at 25 µg/disc (Aspergillus niger [18]): 12 mm | zone of inhibition at 50 µg/disc (Aspergillus niger [19]): 14 mm | zone of inhibition at 100 µg/disc (Aspergillus niger [20]): 16 mm | diameter of the inhibition zone (DIZ) (Penicillium chrysogenum [21]): inactive | diameter of the inhibition zone (DIZ) (Penicillium chrysogenum [22]): inactive | zone of inhibition at 50 µg/disc (Penicillium chrysogenum [23]): 8 mm | zone of inhibition at 100 µg/disc (Penicillium chrysogenum [24]): 10 mm

COc1ccc(-c2nnc(CSc3cc(C)nc(SCc4nnc(-c5ccc(OC)cc5)o4)n3)o2)cc1
diameter of the inhibition zone (DIZ) (Staphylococcus aureus [1]): inactive | diameter of the inhibition zone (DIZ) (Staphylococcus aureus [2]): inactive | diameter of the inhibition zone (DIZ) (Staphylococcus aureus [3]): inactive | diameter of the inhibition zone (DIZ) (Staphylococcus aureus [4]): inactive | diameter of the inhibition zone (DIZ) (Bacillus subtilis [5]): inactive | diameter of the inhibition zone (DIZ) (Bacillus subtilis [6]): inactive | diameter of the inhibition zone (DIZ) (Bacillus subtilis [7]): inactive | diameter of the inhibition zone (DIZ) (Bacillus subtilis [8]): inactive | diameter of the inhibition zone (DIZ) (Pseudomonas aeruginosa [9]): inactive | diameter of the inhibition zone (DIZ) (Pseudomonas aeruginosa [10]): inactive | diameter of the inhibition zone (DIZ) (Pseudomonas aeruginosa [11]): inactive | diameter of the inhibition zone (DIZ) (Pseudomonas aeruginosa [12]): inactive | diameter of the inhibition zone (DIZ) (Klebsiella pneumoniae [13]): inactive | diameter of the inhibition zone (DIZ) (Klebsiella pneumoniae [14]): inactive | diameter of the inhibition zone (DIZ) (Klebsiella pneumoniae [15]): inactive | diameter of the inhibition zone (DIZ) (Klebsiella pneumoniae [16]): inactive | diameter of the inhibition zone (DIZ) (Aspergillus niger [17]): inactive | diameter of the inhibition zone (DIZ) (Aspergillus niger [18]): inactive | diameter of the inhibition zone (DIZ) (Aspergillus niger [19]): inactive | diameter of the inhibition zone (DIZ) (Aspergillus niger [20]): inactive | diameter of the inhibition zone (DIZ) (Penicillium chrysogenum [21]): inactive | diameter of the inhibition zone (DIZ) (Penicillium chrysogenum [22]): inactive | diameter of the inhibition zone (DIZ) (Penicillium chrysogenum [23]): inactive | diameter of the inhibition zone (DIZ) (Penicillium chrysogenum [24]): inactive
